Data set [1] relates to IL-1B gene expression in trout macrophages. As to the kind of experiment: IL-1B gene expression in primary trout macrophage culture (QPCR). The format is cell-based, rainbow trout. The settings on record: trout macrophages stimulated 24 hours, LPS positive control. On the procedure:
LPS is a positive stimulatory control. Macrophages were isolated from head kidneys of rainbow trout, plated and then stimulated with the preparations for 24 hours. RNA was extracted from cells and analyzed by QPCR for IL-1B expression. Data are means for 3 independent trials.
Standard SYBR-green based methodology was used for anti-viral and pro-inflammatory gene expression in mucosal immune system (intestine/gills/skin/spleen) to evaluate effective dose and identify the effects of β-cyclodextrins on tissue activation profiles. Briefly, 2 μg of total RNA was used for cDNA synthesis (SuperScript® III, Invitrogen) and subsequently diluted with nuclease-free water to 1 ng/μL cDNA. Gene-specific high-melting temperature primers for genes of interest were designed using NCBI/Primer-BLAST suite. […] Quantitative expression data between different times were examined by one-way ANOVA using SPSS 17 statistical software and the differences were considered significant at p<0.05.
A primary trout macrophage culture system was used to investigate how pathogens are recognized by the innate immune system in fish (MacKenzie et al., Developmental and Comparative Immunology 27:393-400 (2003); Iliev et al., Molecular Immunology 42:1215-1223 (2005); Iliev et al. FEBS Letters 579 (29):6519-6528 (2005)). […] RNA was extracted from cells and analyzed by QPCR for IL-1B expression. […]

For another data set, the system named is trout macrophages. As to the kind of experiment: QBlue Cell Viability Assay (resazurin reduction) in trout macrophages. The format is cell-based, rainbow trout. The settings on record: same cells as FIG. 1, saponin positive control. The text has this:
High fluorescence indicates no loss in cell viability. Cells were the same ones used in FIG. 1. Saponin is a positive control since it kills cells.
A primary trout macrophage culture system was used to investigate how pathogens are recognized by the innate immune system in fish (MacKenzie et al., Developmental and Comparative Immunology 27:393-400 (2003); Iliev et al., Molecular Immunology 42:1215-1223 (2005); Iliev et al. FEBS Letters 579 (29):6519-6528 (2005)). In this system, macrophages can be stimulated by various compounds and the expression of immune genes such as interleukin 1 B (IL-1B) or tissue necrosis factor (TNF) can be assayed as a measure of the degree of inflammatory stimulation and, thus, activation of the innate immune system. The effect of nanoparticles on the immune system of trout as an indication of the possible harmful effects of these compounds on aquatic organisms was studied. This involved exposing the cultured trout macrophages to nanoparticles and looking for effects on IL-1B and interferon alpha (IFNa) gene expression. Bacterial lipopolysaccharide (LPS) was used as a positive stimulatory control. […] RNA was extracted from cells and analyzed by QPCR for IL-1B expression. […] The effect of beta cyclodextrin on any cell viability was determined using the QBlue Cell Viability Assay Kit (BioChain) and saponin as a positive control for cell death.

The test system of data set [2] is TNF, Mx, IL-6, IL-1B, TLR, IFN, CD18, PU1 gene expression in trout macrophages. As to the kind of experiment: RT-PCR of immune genes in trout macrophages stimulated 24 hours (FIG. 3). In kind it is cell-based, rainbow trout. As to the method: Cells were stimulated for 24 hours and RNA extracted and RT-PCR conducted with TNF (tissue necrosis factor), Mx protein, IL-6 (interleukin 6), IL-1B (interleukin 1B), TLR (toll-like receptor), IFN (interferon), CD18 (cluster of differentiation 18), and PU1 (transcription factor PU1). 18S is a RNA loading control. Molecular weight standard in first lane.
The effects of cyclodextrin on the expression of several other genes such as TNF and IL-6 that are also pro-inflammatory were studied (FIG. 3). […] Cells were stimulated for 24 hours and RNA extracted and RT-PCR conducted with TNF (tissue necrosis factor), Mx protein, IL-6 (interleukin 6), IL-1B (interleukin 1B), TLR (toll-like receptor), IFN (interferon), CD18 (cluster of differentiation 18), and PU1 (transcription factor PU1). 18S is a RNA loading control. Molecular weight standard is in the first lane.

Data set [3] relates to zebrafish larvae. Kind of data set: LPS challenge of zebrafish larvae bathed with cyclodextrin. In kind it is in vivo. The settings on record: zebrafish larvae 2 dpf, bath 67.5-500 μg/mL, then LPS 150 μg/mL Pseudomonas aeruginosa, mortality over 36 hours. As to the method: FIGS. 5A and 5B show replicates of the effects of α-cyclodextrin at various concentrations on LPS challenge. Zebrafish larvae, 2 days post-fertilization, were bathed with 0, 67.5, 125, 250 or 500 μg/mL of alpha cyclodextrin. Zebrafish larvae were then bathed with a lethal concentration (100% mortality) of LPS (150 μg/mL—Pseudomonas aeruginosa) and assessed for mortality over 36 hours. FIGS. 5A and 5B show the cumulative mortality after challenge of zebrafish larvae treated with α-cyclodextrin
FIGS. 6A and 6B show replicates of the effects of β-cyclodextrin at various concentrations on LPS challenge performed in replicate. Zebrafish larvae, 2 days post-fertilization, were bathed with 0, 67.5, 125, 250 or 500 μg/mL of beta cyclodextrin. Zebrafish larvae were then bathed with a lethal concentration (100% mortality) of LPS (150 μg/mL—Pseudomonas aeruginosa) and assessed for mortality over 36 hours. FIGS. 6A and 6B show the cumulative mortality after challenge of zebrafish larvae treated with β-cyclodextrin
To test this, zebrafish larvae, 2 days post fertilization (dpf), were bathed with 0, 67.5, 125, 250 or 500 μg/mL of beta or alpha cyclodextrin. Zebrafish larvae were then bathed with a lethal concentration (i.e., 100% mortality) of bacterial lipopolysaccharide (LPS) (150 μg/mL Pseudomonas aeurginosa). […]

Data set [4] relates to zebrafish larvae. Kind of data set: Larval viability during cyclodextrin treatment after first feeding. In kind it is in vivo. The conditions noted are these: zebrafish larvae bathed with 500 μg/mL, recorded 10 days post first feeding. As to the method:
The larval viability during cyclodextrin treatment was explored. The survival during treatment was compared with normal larval growth condition after first feeding (day 5 post hatch). 6 independent batches by reproduction (84 embryos by batch) of zebrafish larvae were bathed with 0 (“Control”; normal larval growth condition) or 500 μg/mL of beta cyclodextrin (“β CyD”), alpha cyclodextrin (“α CyD”) or both (“β+α CyD”; 50/50% of each). Larval survival was recorded 10 days post first feeding ([…]) and was increased with all cyclodextrin treatments (FIG. 7).

The test system of data set [5] is IL-1B and IL-6 gene expression in rainbow trout macrophages. As to the kind of experiment: RT-PCR of IL-1B and IL-6 in trout macrophages with different cyclodextrins (FIG. 4). In kind it is cell-based. The conditions noted are these: trout macrophages stimulated 30 minutes to 24 hours. As to the method:
Trout macrophages were stimulated for 30 minutes to 24 hours with heptakis (2,6-di-O-methyl)-β-cyclodextrin (Heptakis); methyl-β-cyclodextrin (Methyl β); beta cyclodextrin (β CyD); 2-hydroxypropyl-β-cyclodextrin (Hydroxy β); 2-hydroxypropyl-α-cyclodextrin (Hydroxy α); gamma cyclodextrin (γ CyD). RNA was extracted and RT-PCR conducted with IL-1B and IL-6. 18s was a RNA loading control. Molecular weight standard in first lane
Since there are various forms of cyclodextrins with different side groups that appear to have different effects in mammalian macrophages, the effects of different cyclodextrins on gene expression in the trout macrophage cell cultures were tested. Trout macrophages were stimulated for 30 minutes to 24 hours with heptakis (2,6-di-O-methyl)-β-cyclodextrin (Heptakis); methyl-β-cyclodextrin (Methyl β); beta cyclodextrin (β CyD); 2-hydroxypropyl-β-cyclodextrin (Hydroxy β; 2-hydroxypropyl-α-cyclodextrin (Hydroxy α); gamma cyclodextrin (γ CyD). RNA was extracted and RT-PCR conducted with IL-1B and IL-6.
From these cell experiments, it was shown that cyclodextrin could up-regulate the innate immune system and could possibly be used as an immune agent to protect fish against pathogen challenges.

For the compound `OC[C@H]1O[C@@H]2O[C@H]3[C@H](O)[C@@H](O)[C@@H](O[C@H]4[C@H](O)[C@@H](O)[C@@H](O[C@H]5[C@H](O)[C@@H](O)[C@@H](O[C@H]6[C@H](O)[C@@H](O)[C@@H](O[C@H]7[C@H](O)[C@@H](O)[C@@H](O[C@H]8[C@H](O)[C@@H](O)[C@@H](O[C@H]1[C@H](O)[C@H]2O)O[C@@H]8CO)O[C@@H]7CO)O[C@@H]6CO)O[C@@H]5CO)O[C@@H]4CO)O[C@@H]3CO` [beta cyclodextrin], the IL-1B expression result in data set [1] is listed as “potent stimulator of inflammatory gene expression”. Moreover, the cell viability entry in the data set with trout macrophages is recorded as “No effect on viability”. The “most highly stimulated gene” value in data set [2] is “IL-1B”. Further, in the data set on zebrafish larvae [3], the “protection of larvae against lethal LPS challenge” value is reported as “protected the larvae against the LPS”. The “larval survival versus control” value in the data set with zebrafish larvae [4] is “increased”.
`OC[C@H]1O[C@@H]2O[C@H]3[C@H](O)[C@@H](O)[C@@H](O[C@H]4[C@H](O)[C@@H](O)[C@@H](O[C@H]5[C@H](O)[C@@H](O)[C@@H](O[C@H]6[C@H](O)[C@@H](O)[C@@H](O[C@H]7[C@H](O)[C@@H](O)[C@@H](O[C@H]8[C@H](O)[C@@H](O)[C@@H](O[C@H]9[C@H](O)[C@@H](O)[C@@H](O[C@H]1[C@H](O)[C@H]2O)O[C@@H]9CO)O[C@@H]8CO)O[C@@H]7CO)O[C@@H]6CO)O[C@@H]5CO)O[C@@H]4CO)O[C@@H]3CO` [gamma cyclodextrin]: in data set [5], the IL-1B expression result is listed as “most effective form”.
With `COC[C@H]1O[C@@H]2O[C@H]3[C@H](O)[C@@H](OC)[C@@H](O[C@H]4[C@H](O)[C@@H](OC)[C@@H](O[C@H]5[C@H](O)[C@@H](OC)[C@@H](O[C@H]6[C@H](O)[C@@H](OC)[C@@H](O[C@H]7[C@H](O)[C@@H](OC)[C@@H](O[C@H]8[C@H](O)[C@@H](OC)[C@@H](O[C@H]1[C@H](O)[C@H]2OC)O[C@@H]8COC)O[C@@H]7COC)O[C@@H]6COC)O[C@@H]5COC)O[C@@H]4COC)O[C@@H]3COC` [Heptakis, heptakis (2,6-di-O-methyl)-β-cyclodextrin], in data set [5], the IL-1B expression result is on record as “stimulated” and the IL-6 expression entry is recorded as “stimulated”.
Turning to `OC[C@H]1O[C@@H]2O[C@H]3[C@H](O)[C@@H](O)[C@@H](O[C@H]4[C@H](O)[C@@H](O)[C@@H](O[C@H]5[C@H](O)[C@@H](O)[C@@H](O[C@H]6[C@H](O)[C@@H](O)[C@@H](O[C@H]7[C@H](O)[C@@H](O)[C@@H](O[C@H]1[C@H](O)[C@H]2O)O[C@@H]7CO)O[C@@H]6CO)O[C@@H]5CO)O[C@@H]4CO)O[C@@H]3CO` [alpha cyclodextrin], the “protection of larvae against lethal LPS challenge” value in the data set with zebrafish larvae [3] is given as “protected the larvae against the LPS”. The “larval survival versus control” value in the data set with zebrafish larvae [4] is “increased”.

The values above are taken from patent publication US20140086961A1, “USE OF CYCLODEXTRINS IN DIETS, WATER OR VACCINE ADJUVANTS TO BOOST THE IMMUNE SYSTEM OF FISH” (priority 2011, published 2014).
